Measurements: patent US9758492B2, “IDO inhibitors” (Bristol-Myers Squibb Company, priority 2013, dated 2017)

Columns and labels:
Human IDO1 = molecular target: T1, Human IDO1 (Homo sapiens, UniProt P14902); test: IDO Kynurenine Assay with Human IDO1/HEK293 Cells; assay type: cell-based; conditions: read-out: HEK human IDO-1 (IC50)
T1 construct: expressed in transfected cells; host or cells: HEK293
Summary of the method: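 HEK293 cells stably expressing human IDO1, in phenol red-free RPMI/10% FBS, exposed to compound for 20 h at 37 °C. Stopped with 0.2% TCA (50 °C, 30 min); kynurenine in supernatant detected with Ehrlich reagent, absorbance 490 nm.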

IDO = IDO (Homo sapiens, UniProt P14902); test: LLE_IDO_ABS_DR (IDO assay)
Chain of IDO (P14902 whole entry): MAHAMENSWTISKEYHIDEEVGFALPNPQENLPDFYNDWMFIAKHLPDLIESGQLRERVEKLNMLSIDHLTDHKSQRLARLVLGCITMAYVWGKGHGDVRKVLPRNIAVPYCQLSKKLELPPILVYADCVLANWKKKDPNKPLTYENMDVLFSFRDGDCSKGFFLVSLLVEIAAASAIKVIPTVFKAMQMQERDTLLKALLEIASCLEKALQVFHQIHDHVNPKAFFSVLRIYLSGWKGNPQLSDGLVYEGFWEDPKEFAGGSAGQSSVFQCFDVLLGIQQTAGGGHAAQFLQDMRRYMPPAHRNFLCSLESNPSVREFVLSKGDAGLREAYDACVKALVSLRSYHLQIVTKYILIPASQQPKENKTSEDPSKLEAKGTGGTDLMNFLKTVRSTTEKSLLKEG

T1 sequence (P14902 whole entry): as above

SMILES	IC50 (Human IDO1) [nM]	IC50 (IDO) [nM]
CC(C)CN(c1ccc(-c2ccccc2-c2nnn[nH]2)cc1NC(=O)Nc1ccc(OC(F)(F)F)cc1)C1CCC(F)(F)CC1 [Example 514, 1-(4((4,4-Difluorocyclohexyl)(isobutyl)amino)-2′-(1H-tetrazol-5-yl)-[1,1′-biphenyl]-3-yl)-3-(4-(trifluoromethoxy)phenyl)urea]	20	10
C=CC(c1ccccc1)c1cc(-c2ccccc2-c2nnn[nH]2)cc(NC(=O)Nc2ccc(C)cc2)c1NCC(C)C (stereo not drawn) [Example 358, 1-(4-(isobutylamino)-5-(1-phenylallyl)-2′-(1H-tetrazol-5-yl)-[1,1′-biphenyl]-3-yl)-3-(p-tolyl)urea]	350	20
C=C(C)CN(CC(F)(F)F)c1ccc(-c2cc(F)ccc2C(=O)O)cc1NC(=O)Nc1ccc(C)cc1 [Example 473]	60	70
CC(C)CN(CC1CC(F)(F)C1)c1ccc(-c2ccccc2-c2nnn[nH]2)cc1NC(=O)Nc1cc(C(C)C)no1 [Example 384]	1890	1640
Cc1ccc(NC(=O)Nc2cc(-c3cc(F)ccc3C(=O)O)cc(Cl)c2N(CC(C)C)CC(C)C)cc1 [Example 41, 3′-Chloro-4′-(diisobutylamino)-5-fluoro-5′-(3-p-tolylureido)biphenyl-2-carboxylic acid]	6.31	1.78
O=C(Nc1ccc(C(F)(F)F)cc1F)Nc1cc(-c2ccccc2-c2nnn[nH]2)ccc1N1CCC(c2ccccc2)C1 (racemic) [Example 370, (±)-1-(2-Fluoro-4-(trifluoromethyl)phenyl)-3-(4-(3-phenylpyrrolidin-1-yl)-2′-(1H-tetrazol-5-yl)-[1,1′-biphenyl]-3-yl)urea]	70	50
Cc1ccc(NC(=O)Nc2cc(-c3cc(F)ccc3C(=O)O)c(F)cc2N(CC(C)C)C2CCCCC2)cc1 [Example 231]	2.13	2.73
O=C(Nc1ccc(C2CC2)cc1)Nc1cc(-c2ccccc2-c2nn[nH]n2)ccc1N1CC2CC1CN2Cc1ccccc1 (stereo not drawn) [Example 348, 1-(4-(5-benzyl-2,5-diazabicyclo[2.2.1]heptan-2-yl)-2′-(2H-tetrazol-5-yl)-[1,1′-biphenyl]-3-yl)-3-(4-cyclopropylphenyl)urea]	10	10
CC(C)CN(CC(C)C)c1ccc(-c2ccccc2-c2nnn[nH]2)cc1NC(=O)Nc1ccc(Br)cc1F [Example 38, 1-(4-Bromo-2-fluorophenyl)-3-(4-(diisobutylamino)-2′-(1H-tetrazol-5-yl)biphenyl-3-yl)urea]	1.78	1.84
Cc1ccc(NC(=O)Nc2cc(-c3cc(F)ccc3-c3nnn[nH]3)c(F)cc2N(CC(C)C)C2CCCCC2)cc1 [Example 355, 1-(4-(cyclohexyl(isobutyl)amino)-5′,6-difluoro-2′-(1H-tetrazol-5-yl)-[1,1′-biphenyl]-3-yl)-3-(p-tolyl)urea]	3.29	2.37
Cc1ccc(NC(=O)Nc2cc(-c3ccccc3C(=O)O)ccc2N(CC(C)C)C2CCC(F)(F)CC2)cc1 [Example 512, 4′-((4,4-Difluorocyclohexyl)(isobutyl)amino)-3′-(3-(p-tolyl)ureido)-[1,1′-biphenyl]-2-carboxylic acid]	50	2.88
Cc1ccc(NC(=O)Nc2cc(-c3ccccc3C(=O)O)ccc2N(CC(C)C)C2CCOCC2)cc1 [Example 378]	70	60
Cc1ccc(NC(=O)Nc2cc(-c3ccc(Cl)cc3C(=O)O)ccc2N(CC(C)C)CC(C)C)cc1 [Example 127, 4-chloro-4′-(diisobutylamino)-3′-(3-p-tolylureido) biphenyl-2-carboxylic acid]	80	130
Cc1ccc(NC(=O)Nc2cc(-c3ccccc3-c3nnn[nH]3)ccc2N2CCC(c3ccccc3)C2)cc1 (racemic) [Example 367, (±)-1-(4-(3-Phenylpyrrolidin-1-yl)-2′-(1H-tetrazol-5-yl)-[1,1′-biphenyl]-3-yl)-3-(p-tolyl)urea]	10	20

More lines, now with the values ahead:

IC50 (Human IDO1) [nM]	IC50 (IDO) [nM]	SMILES
9.13	10	C=C(C)CN(CC(F)(F)F)c1ccc(-c2ccccc2-c2nnn[nH]2)cc1NC(=O)Nc1ccc(C)cc1 [Example 472]
130	7.49	O=C(Nc1ccc(C2CC2)cc1)Nc1cc(-c2ccccc2-c2nnn[nH]2)ccc1N(CCCC(F)(F)F)Cc1ccc(Cl)cc1 [Example 349, 1-(4-((4-chlorobenzyl)(4,4,4-trifluorobutyl)amino)-2′-(1H-tetrazol-5-yl)-[1,1′-biphenyl]-3-yl)-3-(4-cyclopropylphenyl)urea]
220	60	O=C(Nc1ccc(OC(F)(F)F)cc1)Nc1cc(-c2ccccc2-c2nnn[nH]2)ccc1N(CCCC(F)(F)F)Cc1ccc(Cl)cc1 [Example 322, 1-(4-((4-chlorobenzyl)(4,4,4-trifluorobutyl)amino)-2′-(1H-tetrazol-5-yl)-[1,1′-biphenyl]-3-yl)-3-(4-(trifluoromethoxy)phenyl)urea]
40	30	O=C(Nc1ccc(F)cc1F)Nc1cc(-c2ccccc2-c2nnn[nH]2)ccc1N(CCC(F)(F)F)Cc1ccc(F)cc1C(F)(F)F [Example 340, 1-(2,4-difluorophenyl)-3-(4-((4-fluoro-2-(trifluoromethyl)benzyl) (3,3,3-trifluoropropyl)amino)-2′-(1H-tetrazol-5-yl)-[1,1′-biphenyl]-3-yl)urea]
20	20	O=C(Nc1ccc(F)cc1F)Nc1cc(-c2ccccc2-c2nnn[nH]2)ccc1N(CCCC(F)(F)F)Cc1ccc(Cl)cc1 [Example 319, 1-(4-((4-chlorobenzyl)(4,4,4-trifluorobutyl)amino)-2′-(1H-tetrazol-5-yl)-[1,1′-biphenyl]-3-yl)-3-(2,4-difluorophenyl) urea]
70	30	COCCN(Cc1ccc(Cl)cc1)c1ccc(-c2cc(F)ccc2C(=O)O)cc1NC(=O)Nc1ccc(C)cc1 [Example 193, 4′-((4-chlorobenzyl)(2-methoxyethyl)amino)-5-fluoro-3′-(3-(p-tolyl)ureido)-[1,1′-biphenyl]-2-carboxylic acid]
20	5.01	Cc1ccc(NC(=O)Nc2cc(-c3ccccc3-c3nnn[nH]3)ccc2N(CCC(F)(F)F)Cc2ccc(F)cc2C(F)(F)F)cc1 [Example 502, 1-(4-((4-fluoro-2-(trifluoromethyl)benzyl)(3,3,3-trifluoropropyl)amino)-2′-(1H-tetrazol-5-yl)-[1,1′-biphenyl]-3-yl)-3-(p-tolyl)urea]
20	10	Cc1ccc(NC(=O)Nc2cc(-c3ccccc3-c3nnn[nH]3)ccc2N(CCC(F)(F)F)Cc2ccc(Cl)cc2)cc1 [Example 16]
10	2.24	O=C(Nc1ccc(OC(F)(F)F)cc1)Nc1cc(-c2ccccc2-c2nnn[nH]2)ccc1N(CCC(F)(F)F)Cc1ccc(OC(F)(F)F)cc1 [Example 503, 1-(2′-(1H-Tetrazol-5-yl)-4-((4-(trifluoromethoxy)benzyl)(3,3,3-trifluoropropyl)amino)-[1,1′-biphenyl]-3-yl)-3-(4-(trifluoromethoxy)phenyl)urea]
60	30	Cc1ccc(NC(=O)Nc2cc(-c3ccccc3-c3nnn[nH]3)ccc2N(CCC(F)(F)F)Cc2cccc(Cl)c2)cc1 [Example 13, 1-(4-((3-Chlorobenzyl)(3,3,3-trifluoropropyl)amino)-2′-(1H-tetrazol-5-yl)-[1,1′-biphenyl]-3-yl)-3-(p-tolyl)urea]
